Results published in patent US7601365B2, “Synergetic effects of HGF and antibacterial treatment” (Damavand Wound, AB, priority 2000, dated 2009).
“And” between values parts separate entries of the source, which are not always exact repeats. Equal values may be shown once. Marks after values point to notes of the source that are not given here.

Experiments:
[1] = tested on: spontaneous fungal infections and ulcers; assay: Mice with spontaneous fungal infections and ulcers, Gentiana violet with or without rhHGF; type: in vivo; details: local Gentiana violet once; the HGF mouse also rhHGF 10 ng subcutaneously
Experimental: Two mice (23-25 g) with spontaneous fungal infections and ulcers on their backs were shaved and treated locally with Gentiana violet once. One of them was simultaneously treated with hepatocyte growth factor (rhHGF) 10 ng subcutaneously. The hair growth was fine as in the other places of body, in the mouse that received HGF and fungicidal treatment. […] This example confirms the morphogenic effects of HGF in recovering after treated infectious injuries (see FIG. 7).

[2] = tested on: normal hairless skin in mice; assay: Local rhHGF on shaved normal hairless skin in mice, hair growth; type: in vivo
Experimental: Eighteen black mice (14-16 weeks old and 21-29 g weight) were shaved on their back, causing two 1×1 cm patches on the right and left side. They were then divided into 3 groups. Group I (n=6, females), Group 2 (n=6 males) and Group 3 (n=6, 3 males and 3 females). Group 1 were treated locally on the right side by 0.70 μg/kg (12-18 ng/cm^2 hairless skin) recombinant human hepatocyte growth factor (rhHGF) daily in 10 days. In order to prepare HGF preparations, recombinant human HGF (rhHGF) was provided commercially from R&D systems Inc., Minneapolis, USA. Group 2 (n=6 males) received 0.35 μg/kg/day (5-10 ng/cm^2 hairless skin) on the right side in 10 days. Group 3, non-treated, served as the control group. […] Although some significant differences were not obviously seen in the hair growth under treatment we were surprised to see that the animals in Group 1 did show a full double-sided hair growth in 5 animals 2 days after the treatment was ended (day 12). The same process in Group 2 and group 3 did take much a longer time (day 20 and day 21, respectively).

[3] = tested on: human skin fibroblasts; details: more than 1.0 ng/ml of HGF added to cultures media; cited from earlier work
[4] = tested on: CCL-53.1; assay: Restitution of scraped confluent monolayer; type: cell-based
Experimental: The confluent monolayer of CCL-53.1 was scraped off, forming long wounds. The area not covered by cells finally disappeared, and restitution (in control medium with 15% horse serum and 2.5 % FBS) was completed at 72 h. The addition of HGF together with the addition of antibiotic agent (streptomycin and penicillin) to the culture medium improved the restitution of the damaged area more rapidly than the control medium (10 times at 24 h) as well as to a medium including HGF without added antibiotic agents.

[5] = tested on: chronic leg ulcers; assay: Micro-circulatory perfusion in ulcers by laser Doppler (LDPI); type: in vivo, human
Experimental: The micro-circulation within the ulcers was measured using LDPI. The LDPI system (PIMLO, Lisca Development AB, Sweden) utilises the Doppler principle by freely impinging coherent laser light onto the tissue and processing the backscattered, Doppler broadened, light to estimate the tissue perfusion without touching the skin. The perfusion estimate is proportional to the product of the mean velocity and the concentration of the moving blood cells.
(§1) Micro-circulation perfusion in ulcers compared to the intact contiguous skin was determined at the beginning, after one week and after three months (in 7 patients) and ulcer size and characteristics were also documented.

[6] = tested on: chronic leg ulcers; type: in vivo, human
Experimental: HGF in gel form was applied locally once daily for seven days in 15 of 19 chronic leg ulcers in eleven elderly patients in a pilot study. All patients had previously been treated with conventional methods and their leg ulcers had been in a rather stable condition for between one and fourteen years. Any signs of allergy, discomfort or pain were reported daily.
as §1
In contrast to the patients with unfavourable healing (non-responders) the healing process in the responders began during treatment and continued afterwards. There was a statistically significant correlation (r=0.94, p<0.002) between enhanced micro-circulation and ulcer area reduction in the treated ulcers. Simultaneously antibacterial treatment in the ulcers with signs of infection enhanced the therapy results considerably. […] Micro-circulatory perfusion, which might reflect the angiogenic effect of HGF, was positively correlated to ulcer area reduction. Local treatment by HGF seems to have positive effect on nearby, not locally treated, ulcers indicating systemic effects. […] HGF and representative antibacterial treatment have synergetic effects in treatment of chronic leg ulcers.

[7] = contiguous non-treated ulcer in a locally treated patient, up to three months

CN(C)c1ccc(C(=C2C=CC(=[N+](C)C)C=C2)c2ccc(N(C)C)cc2)cc1.[Cl-] [Gentiana violet, reference compound]
Quality of hair growth [1]: rough and irregular

HGF: recombinant human HGF (rhHGF) provided commercially from R&D systems Inc., Minneapolis, USA
Quality of hair growth [1]: fine
Signs of non-tolerance or diseases under or after treatment ([2]; 0.70 or 0.35 μg/kg/day locally, 10 days): None of the treated animals did show any sign of non-tolerance or diseases
Day of full double-sided hair growth ([2]; Group 1: 0.70 μg/kg locally daily in 10 days, in 5 animals): 12 days
Day of full double-sided hair growth ([2]; Group 2: 0.35 μg/kg/day locally in 10 days): 20 days
Local dose that accelerates hair growth ([2]; normal hairless skin in mice): not less than 0.7 μg/kg
DNA synthesis [3]: doubled
Restitution of the damaged area relative to control medium ([4]; HGF together with streptomycin and penicillin in the culture medium, at 24 h): 10 times
HGF concentration at which the effect is detectable ([4]; dose-dependent effect): ≥ 5 ng/mL
Circ (NT) ratio, mean ([5]; non-treated ulcers): 0.9/ND ratio
Circ (NT) ratio, median ([5]; non-treated ulcers): 0.9/ND ratio
Circ (T) ratio, mean ([5]; treated ulcers): 1.12 ratio
Circ (T) ratio, median ([5]; treated ulcers): 1.23 ratio
Circ (T) ratio: relative change in local microcirculation ([5]; treated ulcers, before treatment vs one week later, one line per patient): 1.29 ratio and 1.23 ratio and 1.28 ratio and 0.77 ratio and 0.72 ratio and 0.97 ratio and 1.48 ratio
Heal % (T), median ([6]; 11 patients): 84%
Heal % (NT), first listed non-treated ulcer [6, 7]: 100/100% and 100%
Heal % (NT), second listed non-treated ulcer [6, 7]: 100/100% and 92%
Signs of allergy or malignancy ([6]; human, in vivo): No signs of allergy or malignancy were observed
Patients with complete or partial healing ([6]; local HGF treatment, ulcers incurable for up to fourteen years): 8/11
Cases with complete cure of ulcers ([6]; local HGF with appropriate oral antibiotics at the same time): at least 4 cases
Heal % (NT), mean, first listed ulcer ([6]; non-treated ulcers): 100%
Heal % (NT), mean, second listed ulcer ([6]; non-treated ulcers): 96%
Heal % (NT), median, first listed ulcer ([6]; non-treated ulcers): 100%
Heal % (NT), median, second listed ulcer ([6]; non-treated ulcers): 96%
Course of ulcer after superinfection with resistant bacteria ([6]; one patient with venous insufficiency, no appropriate antibiotics (penicillin allergy)): the ulcer increased dramatically in size
Heal % (T), the two ulcers of patient 7 with different healing ([6]; patient 7): (59-88%)♦
Heal % (T), mean ([6]; sum of total area reduction divided by sum of total area, 11 patients): 78* %
Ulcers with favourable healing (58-59%) ([6]; treated ulcers): two
Ulcers with excellent healing (84-99%) ([6]; treated ulcers, in four patients): four
Ulcers with complete healing (100% area reduction) ([6]; treated ulcers, in three patients): 5/15
Ulcers with minimal improvement (25-30%) or relapse ([6]; treated ulcers, three patients): four
Healing of the four contiguous non-treated ulcers ([6]; two patients): three healed completely and one excellent
